# Results published in PMC6199744, “Development of Chemical Proteomics for the Folateome and Analysis of the Kinetoplastid Folateome” (ACS Infectious Diseases, 2018).
# Like-named read-outs stand apart in the source and are kept apart here.
# Legend:
# Format in all cases: binding
# [1] = biological target: T1, HeLa cell extract proteins (Homo sapiens, UniProt O00408)
# T1 construct: endogenous in cells; host or cells: HeLa cell extract
# [2] = biological target: T2, HeLa cell extract proteins (Homo sapiens, UniProt O15162)
# T2 construct: endogenous in cells; host or cells: HeLa cell extract
# T2 sequence (O15162 1-318): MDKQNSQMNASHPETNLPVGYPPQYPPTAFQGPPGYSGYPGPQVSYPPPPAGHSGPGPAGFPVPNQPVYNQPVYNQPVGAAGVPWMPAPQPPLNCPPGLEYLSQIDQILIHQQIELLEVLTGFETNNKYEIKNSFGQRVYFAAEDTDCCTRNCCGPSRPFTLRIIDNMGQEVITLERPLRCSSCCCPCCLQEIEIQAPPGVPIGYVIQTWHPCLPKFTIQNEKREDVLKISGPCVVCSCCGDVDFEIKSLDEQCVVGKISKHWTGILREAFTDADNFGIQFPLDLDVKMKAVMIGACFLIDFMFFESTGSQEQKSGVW
# [3] = biological target: T3, HeLa cell extract proteins (Homo sapiens, UniProt P08559)
# T3 construct: endogenous in cells; host or cells: HeLa cell extract
# T3 sequence (P08559 30-390): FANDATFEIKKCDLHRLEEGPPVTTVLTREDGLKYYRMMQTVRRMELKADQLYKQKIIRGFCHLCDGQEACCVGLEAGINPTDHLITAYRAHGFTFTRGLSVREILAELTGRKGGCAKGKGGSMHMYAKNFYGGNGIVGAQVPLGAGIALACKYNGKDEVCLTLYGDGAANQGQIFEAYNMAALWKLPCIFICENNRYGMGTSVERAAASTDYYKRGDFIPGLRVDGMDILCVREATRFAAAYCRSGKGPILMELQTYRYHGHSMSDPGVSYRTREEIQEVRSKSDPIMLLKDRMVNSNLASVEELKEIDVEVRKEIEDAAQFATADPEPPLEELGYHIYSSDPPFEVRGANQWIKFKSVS
# [4] = biological target: T4, HeLa cell extract proteins (Homo sapiens, UniProt P09622)
# T4 construct: endogenous in cells; host or cells: HeLa cell extract
# T4 sequence (P09622 36-509): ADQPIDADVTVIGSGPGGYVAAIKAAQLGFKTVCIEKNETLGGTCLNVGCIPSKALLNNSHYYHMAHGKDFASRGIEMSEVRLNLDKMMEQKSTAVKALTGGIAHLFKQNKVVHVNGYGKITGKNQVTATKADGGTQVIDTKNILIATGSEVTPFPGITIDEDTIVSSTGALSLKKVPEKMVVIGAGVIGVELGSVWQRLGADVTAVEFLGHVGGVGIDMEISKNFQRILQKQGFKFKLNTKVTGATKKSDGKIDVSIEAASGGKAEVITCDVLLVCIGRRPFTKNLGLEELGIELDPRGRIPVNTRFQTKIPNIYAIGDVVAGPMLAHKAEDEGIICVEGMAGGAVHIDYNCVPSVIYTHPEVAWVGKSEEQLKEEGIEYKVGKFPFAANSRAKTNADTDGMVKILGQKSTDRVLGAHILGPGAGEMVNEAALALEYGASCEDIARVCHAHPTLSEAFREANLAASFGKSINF
# [5] = biological target: T5, HeLa cell extract proteins (Homo sapiens, UniProt P39019)
# T5 construct: endogenous in cells; host or cells: HeLa cell extract
# [6] = biological target: T6, HeLa cell extract proteins (Homo sapiens, UniProt P48047)
# T6 construct: endogenous in cells; host or cells: HeLa cell extract
# T6 sequence (P48047 24-213): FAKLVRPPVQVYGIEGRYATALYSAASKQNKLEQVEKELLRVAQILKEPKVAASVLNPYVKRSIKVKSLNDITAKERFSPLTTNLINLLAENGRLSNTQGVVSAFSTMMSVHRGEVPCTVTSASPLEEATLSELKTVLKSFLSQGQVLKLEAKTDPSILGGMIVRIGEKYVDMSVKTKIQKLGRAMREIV
# [7] = biological target: T7, HeLa cell extract proteins (Homo sapiens, UniProt P48643)
# T7 construct: endogenous in cells; host or cells: HeLa cell extract
# T7 sequence (P48643 whole entry): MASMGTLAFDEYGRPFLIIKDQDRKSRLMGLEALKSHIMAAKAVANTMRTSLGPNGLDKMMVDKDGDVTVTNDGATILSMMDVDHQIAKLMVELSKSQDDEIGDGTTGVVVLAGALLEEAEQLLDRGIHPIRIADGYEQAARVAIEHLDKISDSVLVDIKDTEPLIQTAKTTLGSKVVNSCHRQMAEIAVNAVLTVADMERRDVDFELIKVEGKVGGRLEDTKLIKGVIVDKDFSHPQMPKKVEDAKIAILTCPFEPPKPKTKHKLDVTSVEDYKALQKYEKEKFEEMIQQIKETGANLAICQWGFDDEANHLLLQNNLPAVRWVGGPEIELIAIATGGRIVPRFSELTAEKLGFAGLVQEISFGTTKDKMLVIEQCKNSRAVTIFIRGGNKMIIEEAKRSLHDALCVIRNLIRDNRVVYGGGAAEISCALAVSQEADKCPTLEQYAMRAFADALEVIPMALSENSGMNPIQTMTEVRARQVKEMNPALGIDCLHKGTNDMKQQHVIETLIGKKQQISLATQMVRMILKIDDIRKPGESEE
# [8] = biological target: T8, HeLa cell extract proteins (Homo sapiens, UniProt P55795)
# T8 construct: endogenous in cells; host or cells: HeLa cell extract
# T8 sequence (P55795 1-449): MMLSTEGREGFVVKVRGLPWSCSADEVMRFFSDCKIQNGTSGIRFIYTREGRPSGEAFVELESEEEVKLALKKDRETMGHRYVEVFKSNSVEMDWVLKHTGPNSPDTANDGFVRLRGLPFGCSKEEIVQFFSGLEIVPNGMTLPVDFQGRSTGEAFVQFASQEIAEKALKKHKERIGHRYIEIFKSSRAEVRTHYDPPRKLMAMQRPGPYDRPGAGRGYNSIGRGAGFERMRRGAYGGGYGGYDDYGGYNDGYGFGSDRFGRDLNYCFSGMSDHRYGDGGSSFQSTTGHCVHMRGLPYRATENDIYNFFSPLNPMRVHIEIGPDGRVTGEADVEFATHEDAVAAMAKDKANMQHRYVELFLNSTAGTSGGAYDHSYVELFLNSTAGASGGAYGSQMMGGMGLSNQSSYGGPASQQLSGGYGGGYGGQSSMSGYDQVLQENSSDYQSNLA
# [9] = biological target: T9, HeLa cell extract proteins (Homo sapiens, UniProt Q9Y679)
# T9 construct: endogenous in cells; host or cells: HeLa cell extract
# T9 sequence (Q9Y679 1-410): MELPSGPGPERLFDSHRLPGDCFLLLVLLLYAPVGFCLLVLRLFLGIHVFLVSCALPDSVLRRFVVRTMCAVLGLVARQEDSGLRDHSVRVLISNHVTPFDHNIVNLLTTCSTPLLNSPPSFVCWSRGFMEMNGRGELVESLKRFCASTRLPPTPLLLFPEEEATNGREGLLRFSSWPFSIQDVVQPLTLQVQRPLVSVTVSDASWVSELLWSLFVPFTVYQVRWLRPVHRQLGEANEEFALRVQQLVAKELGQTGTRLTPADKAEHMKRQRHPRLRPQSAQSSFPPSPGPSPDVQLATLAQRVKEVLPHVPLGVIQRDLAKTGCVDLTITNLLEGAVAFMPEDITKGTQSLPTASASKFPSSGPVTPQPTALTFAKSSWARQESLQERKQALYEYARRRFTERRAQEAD
# [10] = system: HeLa cell extract proteins
# [11] = HeLa; captured protein LOC442497
# [12] = HeLa; protein ABCB7 (ISOFORM 2 OF ATP-BINDING CASSETTE SUB-FAMILY B MEMBER 7, MIT[…])
# [13] = HeLa; protein ASAH1 (N-ACYLSPHINGOSINE AMIDOHYDROLASE (ACID CERAMIDASE) 1 ISOFORM B)
# [14] = HeLa; protein MYL6 (ISOFORM SMOOTH MUSCLE OF MYOSIN LIGHT POLYPEPTIDE 6)
# [15] = HeLa; protein PSMA1 (ISOFORM LONG OF […] ALPHA TYPE 1)
# [16] = HeLa; protein PSME1 ([…] SUBUNIT 1 ISOFORM 2)
# [17] = HeLa, protein CCT5 (T-COMPLEX PROTEIN 1 SUBUNIT EPSILON.)
# [18] = HeLa; protein A8MV93_HUMAN (SIMILAR TO CYTOCHROME C.)
# [19] = HeLa; protein CTNNA1 (ISOFORM 2 OF CATENIN ALPHA-1.)
# [20] = HeLa; protein EIF5A (ISOFORM 2 OF EUKARYOTIC TRANSLATION INITIATION FACTOR 5A-1.)
# [21] = HeLa; protein NME1-NME2 (NUCLEOSIDE DIPHOSPHATE KINASE.)
# T1 sequence (O00408 whole entry): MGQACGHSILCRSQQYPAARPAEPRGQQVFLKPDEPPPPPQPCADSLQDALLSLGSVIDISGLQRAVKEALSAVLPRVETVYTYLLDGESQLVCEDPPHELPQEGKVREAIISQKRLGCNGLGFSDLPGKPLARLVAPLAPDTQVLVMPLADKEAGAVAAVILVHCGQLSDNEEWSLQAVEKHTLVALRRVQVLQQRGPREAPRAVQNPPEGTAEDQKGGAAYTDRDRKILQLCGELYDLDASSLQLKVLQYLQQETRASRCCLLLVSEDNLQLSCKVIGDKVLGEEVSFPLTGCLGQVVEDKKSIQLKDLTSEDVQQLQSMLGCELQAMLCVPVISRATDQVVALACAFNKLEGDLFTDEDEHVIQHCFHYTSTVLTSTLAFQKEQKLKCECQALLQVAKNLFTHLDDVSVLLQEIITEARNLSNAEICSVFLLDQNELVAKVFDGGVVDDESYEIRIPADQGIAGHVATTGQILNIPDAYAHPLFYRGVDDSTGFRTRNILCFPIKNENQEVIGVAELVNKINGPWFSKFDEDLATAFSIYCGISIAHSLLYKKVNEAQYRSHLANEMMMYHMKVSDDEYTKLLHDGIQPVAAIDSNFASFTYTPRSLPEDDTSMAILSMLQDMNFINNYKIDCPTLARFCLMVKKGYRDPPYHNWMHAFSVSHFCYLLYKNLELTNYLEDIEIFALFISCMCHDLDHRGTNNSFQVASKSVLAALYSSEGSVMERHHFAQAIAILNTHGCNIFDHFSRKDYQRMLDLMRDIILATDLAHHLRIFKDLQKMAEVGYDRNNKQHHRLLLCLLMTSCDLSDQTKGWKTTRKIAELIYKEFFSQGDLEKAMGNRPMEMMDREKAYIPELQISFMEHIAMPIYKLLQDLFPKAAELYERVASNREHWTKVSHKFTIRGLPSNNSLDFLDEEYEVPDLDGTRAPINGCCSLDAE
Structure (SMILES),"fold changes relative to vehicle control ([1]; protein PDE2A, HeLa)",fold changes relative to vehicle control ([10]; HeLa; captured protein EIF1AP1),"fold changes relative to vehicle control [10, 11]","fold changes relative to vehicle control [10, 12]","fold changes relative to vehicle control [10, 13]",fold changes relative to vehicle control ([10]; HeLa; protein LOC654188),"fold changes relative to vehicle control [10, 14]",fold changes relative to vehicle control ([10]; HeLa; protein NME1-NME2),"fold changes relative to vehicle control [10, 15]","fold changes relative to vehicle control [10, 16]",fold changes relative to vehicle control ([10]; HeLa; protein RPLP0-LIKE),fold changes relative to vehicle control ([10]; protein HIST2H2BA; HeLa),fold changes relative to vehicle control ([10]; protein LOC646960; HeLa),"fold changes relative to vehicle control ([2]; HeLa, protein PLSCR1)","fold changes relative to vehicle control ([3]; HeLa, protein PDHA1)","fold changes relative to vehicle control ([4]; HeLa, protein DLD)","fold changes relative to vehicle control ([5]; protein RPS19, HeLa)","fold changes relative to vehicle control ([6]; protein ATP5O, HeLa)","fold changes relative to vehicle control [7, 17] [fold]","fold changes relative to vehicle control ([8]; protein HNRNPH2, HeLa)",further results
"Nc1nc2c(c(=O)[nH]1)N(C=O)C(CNc1ccc(C(=O)N[C@@H](CCC(=O)O)C(=O)O)cc1)CN2 (some centres unmarked) [LEU, leucovorin]",0.73,0.99,1.06,1.18,1.17,0.98,1.06,0.99,1.18,1.03,0.86,0.92,0.84,,,,,,,,"fold changes relative to vehicle control ([2]; HeLa, captured protein PLSCR1): 1.01; fold changes relative to vehicle control ([3]; HeLa, captured protein PDHA1): 1.06; fold changes relative to vehicle control ([4]; HeLa, captured protein DLD): 1.01; fold changes relative to vehicle control ([5]; HeLa, protein RPS19 (40S RIBOSOMAL PROTEIN S19)): 1.12; fold changes relative to vehicle control ([6]; HeLa, captured protein ATP5O): 1.01; fold changes relative to vehicle control ([7]; HeLa, protein CCT5): 1.05; fold changes relative to vehicle control ([8]; HeLa, captured protein HNRNPH2): 0.9; fold changes relative to vehicle control ([9]; HeLa, protein AUP1): 0.83; fold changes relative to vehicle control ([10]; HeLa; protein GTPBP3 (ISOFORM 2 OF TRNA MODIFICATION GTPASE GTPBP3, MITOCHONDRIAL PRECURSOR)): 0.27"
"Nc1nc2[nH]cc(CCc3ccc(C(=O)N[C@@H](CCC(=O)O)C(=O)O)cc3)c2c(=O)[nH]1 [PTX, pemetrexed]",,0.95,1.08,1.19,1.19,1.12,1.4,1.08,1.09,1,0.92,0.94,0.95,,,,,,,,"fold changes relative to vehicle control [1]: 0.71; fold changes relative to vehicle control [2]: 0.96; fold changes relative to vehicle control [3]: 1.04; fold changes relative to vehicle control [4]: 0.96; fold changes relative to vehicle control [5]: 1.11; fold changes relative to vehicle control [6]: 1.01; fold changes relative to vehicle control [7]: 1.13; fold changes relative to vehicle control [8]: 0.82; fold changes relative to vehicle control [9]: 0.89; fold changes relative to vehicle control ([10]; HeLa; protein GTPBP3 (ISOFORM 2 OF TRNA MO[…] GTPBP3, MIT[…])): 0.49"
CCCCCCOc1ccc(Cc2cnc(N)nc2N)cc1 [compound 1],0.61,,,,,,,,,,,,,1.02,1.02,0.96,0.98,0.98,1.41,0.93,"fold changes relative to vehicle control ([9]; captured protein AUP1, HeLa): 0.98; fold changes relative to vehicle control [10, 18]: 1.4 fold; fold changes relative to vehicle control [10, 19]: 1.26 fold; fold changes relative to vehicle control [10, 20]: 1.5 fold; fold changes relative to vehicle control ([10]; HeLa; protein LOC646960): 1.15; fold changes relative to vehicle control ([10]; HeLa; protein LOC654188 (SIMILAR TO PEPT[…] A-LIKE.)): 1.34 fold; fold changes relative to vehicle control [10, 21]: 1.36 fold; fold changes relative to vehicle control ([10]; protein EIF1AP1; HeLa): 1.3; fold changes relative to vehicle control ([10]; protein LOC442497; HeLa): 1.12; fold changes relative to vehicle control ([10]; protein RPLP0-LIKE; HeLa): 0.94"
CCCCCCOc1cccc(Cc2cnc(N)nc2N)c1 [compound 2],1.7,,,,,,,,,,,,,0.86,0.4,0.42,1.19,0.98,1.97,0.96,"fold changes relative to vehicle control ([9]; captured protein AUP1, HeLa): 1.25; fold changes relative to vehicle control [10, 18]: 2.46 fold; fold changes relative to vehicle control [10, 19]: 2.1 fold; fold changes relative to vehicle control [10, 20]: 2.05 fold; fold changes relative to vehicle control ([10]; HeLa; protein LOC646960): 1.08; fold changes relative to vehicle control ([10]; HeLa; protein LOC654188 (SIMILAR TO PEPTIDYLPROLYL ISOMERASE A-LIKE.)): 2.15 fold; fold changes relative to vehicle control [10, 21]: 2.13 fold; fold changes relative to vehicle control ([10]; protein EIF1AP1; HeLa): 1.77; fold changes relative to vehicle control ([10]; protein LOC442497; HeLa): 1.38; fold changes relative to vehicle control ([10]; protein RPLP0-LIKE; HeLa): 1.23"
